Where a SMILES comes first, the peptide text is derived from it. [ ]: non-standard residue; d: D form. βAla = NCCC(=O)O
How the values were obtained:
Assay type in all cases: in vitro ADME, human
Settings in all cases: human, 24 h, LC-MS
[1] = Soluble peptide degradation, Media condition (cell-conditioned media, LC-MS)
Description: (§1) Most in vitro protease activity assays incubate the peptides or proteins of interest with a single protease in a buffered solution. However, the kinetics of protease activity in tissues are complex and highly regulated, and both the activity^[ [37] ^] and substrate specificity^[ [38] ^] of proteases can be modulated through association with other proteins.^[ [39] ^] Most MMP‐substrate peptides are also cleaved by multiple proteases,^[ [5] ^] and within the context of biomaterials, the most important factor is typically how the combined activity of all proteases, rather than the activity of any specific protease, modifies the local microenvironment versus the activity due to any individual enzyme. We synthesized peptides identified in the TAILS proteomic screen that were present on proteins that are known to be secreted or found on the cell membrane, pooled them, and added them either to cell culture media on top of cells, the “Cells” condition, or conditioned media lacking cells, the “Media” condition (Figure 2A). The fraction of peptides remaining after 24 h in each condition was then quantified using LC‐MS. Soluble proteases should be present in both conditions, however, membrane‐type proteases should primarily be found in the samples containing cells and not the conditioned media samples. A key benefit of this approach is that it surveys the total functional proteolytic activity, including the effects of inhibitors and co‐factors, and quantifies the degradation rate of soluble peptides by the complete secretome of different cell types.
(§2) hUVECs (75000 per well) or hMSCs (36000 per well) were seeded into a 48 well plate, and 500 µL media was added to the wells. […] The peptide libraries were dissolved at a stock solution of 10 mM total peptide content. For libraries containing 38 peptides, 95 µL of the stock solution was added to each well; for libraries with 19 peptides, 47.5 µL was added to each well, and media was taken at 0 and 24 h. Add 4 µL of acetic acid to all collected media in the LC‐MS plates and store them in a −80 °C freezer to prevent further proteolytic degradation. From each sample, 10 µL of crude solution was introduced by the LC‐MS through a Thermo Scientific Vanquish LC System (Thermo Fisher Scientific), which outputted to a Thermo Scientific LTQ XL Linear Ion Trap Mass Spectrometer (Thermo Fisher Scientific). The sampled mixture was trapped on a column (ProntoSIL C18 AQ, 120 Å, 3 µm, 2.0 x 50 mm HPLC Column, PN 0502F184PS030, MAC‐MOD Analytical Inc.). The samples were loaded onto the column with a solvent containing acetonitrile/water, 5:95 (v/v) containing 1% acetic acid at a flow rate of 300 µL min^−1 and held for 1 min. The sample was then eluted from the column with a linear gradient of 5–40% Solvent B (1% acetic acid in acetonitrile) at the same flow rate for 5 min. This was followed by a 1 min ramp up to 100% Solvent B, where it was re‐equilibrated with Solvent A (1% acetic acid) to 5% solvent B over the course of 1 min and held there for 2 min. The column temperature was kept at a constant 29 °C, and the mass spectrometer was operated in positive ion mode. Using a Heated ESI, the Source Voltage was set to 4.1 kV, and the capillary temperature was 350 °C. For non‐library degradation studies, 2.5 µL of 10 mM peptide stock solution for each peptide was added.
(§3) To assess the activity of the conditioned media, the media were divided into two equal portions. One portion was used for a standard degradation study, while the other was cultured for an additional 24 h before the PanMMP and KLVADLMASAE were added. After 24 h of incubation, the media were collected for further analysis. To assess the impact of recombinant MMP‐14 on PanMMP and KLVADLMASAE, recombinant MMP‐14 (antibodies.com) was dissolved in the media at a concentration of 0.5 nM. The remaining steps followed the standard degradation study protocol. […]

[2] = as above; remark: listed apart in the source
Description: as §1, §2, §3

[3] = Soluble peptide degradation, Cells condition (LC-MS)
Description: as §1, §2
In the MMP‐14 inhibitor study, the MMP‐14 inhibitor NSC 405 020 (Cayman Chemical Company) was dissolved in DMSO to make a 10 mM stock solution and stored in −20 °C freezer. 0.5 µL MMP‐14 inhibitor stock solution was added to each well to achieve a 10 µM final concentration.
For all degradation studies using soluble peptides, a non‐proteolytically degradable NH2‐βFβAβAβAβAβAβA‐amide (βFβA6) peptide, where βF is β‐phenylalanine and βA is β‐alanine, was added at a 50 µM concentration and used as an internal standard. Peptide degradation ratios were measured by LC‐MS and analyzed by Xcalibur. […]

[4] = Figure 2B heatmap, pooled TAILS-derived soluble peptides in 24 h hMSC-conditioned media without cells, ratio to βFβA6 internal standard, 24 h / 0 h, N = 5, read-out: Fraction of peptide remaining at 24 hours: hMSC Media
[5] = Figure 2B heatmap, pooled TAILS-derived soluble peptides in 24 h hUVEC-conditioned media without cells, ratio to βFβA6 internal standard, 24 h / 0 h, N = 5, read-out: Fraction of peptide remaining at 24 hours: hUVEC Media
[6] = hMSCs in culture with fresh media (Cells condition), Figure 2B heatmap, pooled TAILS-derived soluble peptides (Ac-βAla N-terminus, βAla-amide C-terminus) in media on hMSCs (36000 per well, 48 well plate, 500 µL), ratio to βFβA6 internal standard, 24 h / 0 h, N = 5, read-out: Fraction of peptide remaining at 24 hours: hMSC Cells
[7] = hUVECs in culture with fresh media (Cells condition), Figure 2B heatmap, pooled TAILS-derived soluble peptides in media on hUVECs (75000 per well, 48 well plate, 500 µL), ratio to βFβA6 internal standard, 24 h / 0 h, N = 5, read-out: Fraction of peptide remaining at 24 hours: hUVEC Cells
[8] = hMSC-conditioned media without cells (Media condition), Figure 3B heatmap, split-and-pool libraries KLVADX1X2ASAE in hMSC-conditioned media without cells, ratio to βFβA6, N = 2, read-out: Fraction of peptide remaining after 24 hours: hMSC Media
[9] = hUVEC-conditioned media without cells (Media condition), Figure 3B heatmap, split-and-pool libraries KLVADX1X2ASAE in hUVEC-conditioned media without cells, ratio to βFβA6, N = 2, read-out: Fraction of peptide remaining after 24 hours: hUVEC Media
[10] = hMSCs in culture with fresh media (Cells condition), Figure 3B heatmap, split-and-pool libraries KLVADX1X2ASAE (19 or 38 peptides per library) in media on hMSCs, ratio to βFβA6, N = 2, read-out: Fraction of peptide remaining after 24 hours: hMSC Cells
[11] = hUVECs in culture with fresh media (Cells condition), Figure 3B heatmap, split-and-pool libraries KLVADX1X2ASAE in media on hUVECs, ratio to βFβA6, N = 2, read-out: Fraction of peptide remaining after 24 hours: hUVEC Cells

remaining at 24 h [1, 4] | remaining at 24 h [2, 5] | remaining at 24 h [3, 6] | remaining at 24 h [3, 7] | remaining at 24 h [1, 8] | remaining at 24 h [2, 9] | remaining at 24 h [3, 10] | remaining at 24 h [3, 11] | SMILES | other results
98% | 102% | 88% | 100% | – | – | – | – | CC(=O)NCCC(=O)N[C@@H](CCC(=O)O)C(=O)N[C@@H](CO)C(=O)N[C@@H](CO)C(=O)N[C@@H](Cc1c[nH]cn1)C(=O)N[C@@H](CC(N)=O)C(=O)N[C@H](C(=O)N[C@@H](Cc1ccc(O)cc1)C(=O)N[C@@H](CC(C)C)C(=O)N[C@H](C(=O)N[C@@H](CCC(N)=O)C(=O)NCCC(N)=O)[C@@H](C)O)[C@@H](C)O [ESSHNTYLTQ] (Ac-[βAla]ESSHNTYLTQ[βAla]-NH2) | –
– | – | – | – | 73% | 97% | 41% | 91% | CC(=O)NCCC(=O)N[C@@H](CCCCN)C(=O)N[C@@H](CC(C)C)C(=O)N[C@H](C(=O)N[C@@H](C)C(=O)N[C@@H](CC(=O)O)C(=O)N[C@@H](CC(C)C)C(=O)N[C@@H](CC(C)C)C(=O)N[C@@H](C)C(=O)N[C@@H](CO)C(=O)N[C@@H](C)C(=O)N[C@@H](CCC(=O)O)C(=O)NCCC(N)=O)C(C)C [Leu-Leu] (Ac-[βAla]KLVADLLASAE[βAla]-NH2) | –
– | – | – | – | 74% | 100% | 48% | 88% | CC(=O)NCCC(=O)N[C@@H](CCCCN)C(=O)N[C@@H](CC(C)C)C(=O)N[C@H](C(=O)N[C@@H](C)C(=O)N[C@@H](CC(=O)O)C(=O)NCC(=O)N[C@@H](Cc1ccc(O)cc1)C(=O)N[C@@H](C)C(=O)N[C@@H](CO)C(=O)N[C@@H](C)C(=O)N[C@@H](CCC(=O)O)C(=O)NCCC(N)=O)C(C)C [Gly-Tyr] (Ac-[βAla]KLVADGYASAE[βAla]-NH2) | –
86% | 104% | 68% | 94% | – | – | – | – | CC(=O)NCCC(=O)N[C@@H](CC(C)C)C(=O)N[C@@H](C)C(=O)N[C@@H](CC(C)C)C(=O)N[C@@H](CCC(=O)O)C(=O)N[C@@H](C)C(=O)N[C@@H](CCCNC(=N)N)C(=O)N[C@H](C(=O)N[C@H](C(=O)N[C@@H](CC(=O)O)C(=O)N[C@@H](CC(C)C)C(=O)NCCC(N)=O)[C@@H](C)O)[C@@H](C)O [LALEARTTDL] (Ac-[βAla]LALEARTTDL[βAla]-NH2) | –
– | – | – | – | 62% | 98% | 37% | 91% | CC(=O)NCCC(=O)N[C@@H](CCCCN)C(=O)N[C@@H](CC(C)C)C(=O)N[C@H](C(=O)N[C@@H](C)C(=O)N[C@@H](CC(=O)O)C(=O)N[C@@H](CC(C)C)C(=O)N[C@@H](Cc1c[nH]c2ccccc12)C(=O)N[C@@H](C)C(=O)N[C@@H](CO)C(=O)N[C@@H](C)C(=O)N[C@@H](CCC(=O)O)C(=O)NCCC(N)=O)C(C)C [Leu-Trp] (Ac-[βAla]KLVADLWASAE[βAla]-NH2) | –

The remaining lines, values behind:

SMILES | remaining at 24 h [1, 4] | remaining at 24 h [2, 5] | remaining at 24 h [3, 6] | remaining at 24 h [3, 7] | remaining at 24 h [1, 8] | remaining at 24 h [2, 9] | remaining at 24 h [3, 10] | remaining at 24 h [3, 11] | other results
CC(=O)NCCC(=O)N1CCC[C@H]1C(=O)N1CCC[C@H]1C(=O)N[C@@H](CO)C(=O)N[C@@H](CCCNC(=N)N)C(=O)N[C@@H](Cc1c[nH]cn1)C(=O)N[C@@H](CC(=O)O)C(=O)N[C@H](C(=O)NCC(=O)N[C@H](C(=O)N1CCC[C@H]1C(=O)NCCC(N)=O)[C@@H](C)O)[C@@H](C)O [PPSRHDTGTP] (Ac-[βAla]PPSRHDTGTP[βAla]-NH2) | 87% | 104% | 100% | 103% | – | – | – | – | –
CC(=O)NCCC(=O)N[C@@H](CCCCN)C(=O)N[C@@H](CC(C)C)C(=O)N[C@H](C(=O)N[C@@H](C)C(=O)N[C@@H](CC(=O)O)C(=O)N[C@@H](CC(N)=O)C(=O)N1CCC[C@H]1C(=O)N[C@@H](C)C(=O)N[C@@H](CO)C(=O)N[C@@H](C)C(=O)N[C@@H](CCC(=O)O)C(=O)NCCC(N)=O)C(C)C [Asn-Pro] (Ac-[βAla]KLVADNPASAE[βAla]-NH2) | – | – | – | – | – | – | – | – | remaining at 24 h ([1]; cells or culture medium, Figure 3B heatmap, split-and-pool libraries KLVADX1X2ASAE in hMSC-conditioned media without cells, ratio to βFβA6, N = 2, read-out: Fraction of peptide remaining after 24 hours: hMSC Media): 84%; remaining at 24 h ([2]; cells or culture medium, Figure 3B heatmap, split-and-pool libraries KLVADX1X2ASAE in hUVEC-conditioned media without cells, ratio to βFβA6, N = 2, read-out: Fraction of peptide remaining after 24 hours: hUVEC Media): 98%; remaining at 24 h ([3]; cells or culture medium, Figure 3B heatmap, split-and-pool libraries KLVADX1X2ASAE (19 or 38 peptides per library) in media on hMSCs, ratio to βFβA6, N = 2, read-out: Fraction of peptide remaining after 24 hours: hMSC Cells): 54%; remaining at 24 h ([3]; cells or culture medium, Figure 3B heatmap, split-and-pool libraries KLVADX1X2ASAE in media on hUVECs, ratio to βFβA6, N = 2, read-out: Fraction of peptide remaining after 24 hours: hUVEC Cells): 91%
CC(=O)NCCC(=O)N[C@@H](CCCCN)C(=O)N[C@@H](C)C(=O)N1CCC[C@H]1C(=O)NCC(=O)NCC(=O)N[C@@H](CCCCN)C(=O)N[C@@H](C)C(=O)N[C@@H](C)C(=O)NCC(=O)N1CCC[C@H]1C(=O)N[C@@H](C)C(=O)NCCC(N)=O [KAPGGKAAGPA] (Ac-[βAla]KAPGGKAAGPA[βAla]-NH2) | 95% | 88% | 78% | 71% | – | – | – | – | –
CC[C@H](C)[C@H](NC(=O)CCNC(C)=O)C(=O)N[C@H](C(=O)N[C@@H](CCCCN)C(=O)N[C@H](C(=O)N[C@@H](CC(=O)O)C(=O)N[C@H](C(=O)N1CCC[C@H]1C(=O)N[C@@H](CC(=O)O)C(=O)N[C@@H](CCSC)C(=O)N[C@H](C(=O)NCCC(N)=O)C(C)C)[C@@H](C)CC)[C@@H](C)O)C(C)C [IVKTDIPDMV] (Ac-[βAla]IVKTDIPDMV[βAla]-NH2) | 101% | 102% | 96% | 106% | – | – | – | – | –

Reference: paper PMC12683216, “Using High‐Throughput Screening to Identify Crosslinking Peptides That Control Cell‐Mediated Matrix Degradation” (Advanced Healthcare Materials, 2025)
